The supplement of paper PMC10307832

Compound: Cn1cncc1[C@@](N)(c1ccc(Cl)cc1)c1ccc2c(c1)c(-c1cccc(Cl)c1)cc(=O)n2C [Tipifarnib]
Assay: relative viability (nuclei count vs DMSO), 5 days (fraction); higher = more cells survive
In short: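 Lung cancer cell lines were seeded into 1536-well plates, kept overnight at 37 °C and pinned with five library-drug doses (not always all listed) spaced by √10. After 5 days, nuclei were Hoechst-stained, imaged at 4× and counted with MetaXpress. Viability is treated-well nuclei over vehicle-well nuclei, taken as a median across plates. Plates needed control CV below 25% and at least one doubling.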

Row | Cell Line | relative viability (0.01 µM) | relative viability (0.03162 µM) | relative viability (0.1 µM) | relative viability (0.3162 µM) | relative viability (1 µM)
1 | COR-L 105 | 0.935 | 0.807 | 0.734 | 0.696 | 0.571
2 | LK-2 | 1.03 | 0.857 | 0.809 | 0.615 | 0.607
3 | NCI-H727 | 1.16 | 1.11 | 0.876 | 0.685 | 0.645
4 | RERF-LC-KJ | 1.1 | 0.948 | 0.899 | 0.697 | 0.665
5 | NCI-H2023 | 0.868 | 0.665 | 0.502 | 0.458 | 0.288
6 | NCI-H322M | 0.965 | 1.06 | 0.977 | 0.805 | 0.786
7 | NCI-H1666 | 0.99 | 0.858 | 0.858 | 0.8 | 0.795
8 | NCI-H1648 | 1.03 | 0.761 | 0.896 | 0.651 | 0.58
9 | NCI-H2087 | 0.849 | 0.405 | 0.332 | 0.329 | 0.401
10 | LU99A | 1 | 0.836 | 0.643 | 0.556 | 0.394
11 | HCC-366 | 1.06 | 0.939 | 0.781 | 0.541 | 0.0913
12 | EKVX | 1.07 | 0.954 | 0.901 | 0.807 | 0.531
13 | NCI-H522 | 0.917 | 1.06 | 1.1 | 0.898 | 0.748
14 | NCI-H1755 | 1.02 | 1 | 0.976 | 0.955 | 0.826
15 | NCI-H647 | 0.883 | 0.807 | 0.727 | 0.404 | 0.196
16 | LC-2-ad | 0.925 | 0.783 | 0.636 | 0.614 | 0.403
17 | NCI-H1793 | 0.981 | 0.802 | 0.869 | 0.448 | 0.462
18 | HCC-827 | 1.06 | 0.975 | 0.787 | 0.65 | 0.584
19 | HCC-78 | 1 | 0.948 | 0.808 | 0.768 | 0.633
20 | NCI-H2085 | 1.04 | 0.82 | 0.708 | 0.661 | 0.723
21 | PC-14 | 0.9 | 0.695 | 0.481 | 0.32 | 0.263
22 | NCI-H2342 | 1.06 | 0.984 | 0.749 | 0.807 | 0.571
23 | A-427 | 1.12 | 0.981 | 0.987 | 0.826 | 0.609
24 | H3255 | 1.05 | 0.991 | 0.796 | 0.642 | 0.617
25 | HCC-44 | 0.967 | 0.871 | 0.802 | 0.729 | 0.472
26 | NCI-H1734 | 0.92 | 0.865 | 0.789 | 0.559 | 0.448

Row | Cell Line | relative viability (0.01 µM) | relative viability (0.03162 µM) | relative viability (0.1 µM) | relative viability (0.3162 µM) | relative viability (1 µM)
27 | NCI-H2228 | 1.06 | 0.844 | 0.687 | 0.606 | 0.553
28 | ABC-1 | 0.959 |  | 0.88 | 0.756 | 0.663
29 | COR-L23 | 1.04 | 0.803 | 0.681 | 0.622 | 0.467
30 | NCI-H661 | 1.03 | 1.02 | 0.934 | 0.905 | 0.849
31 | NCI-H1993 | 0.966 | 0.754 | 0.736 | 0.593 | 0.69
32 | NCI-H1437 | 1.01 | 1.01 | 1.02 | 0.917 | 0.634
33 | UMC-11 | 0.884 | 0.641 | 0.566 | 0.517 | 0.432
34 | 201T | 0.999 | 1.02 | 0.932 | 0.893 | 0.669
35 | NCI-H358 | 1.04 | 0.918 | 0.834 | 0.729 | 0.416
36 | ChaGo-K-1 | 0.993 | 1.02 | 1.08 | 0.928 | 0.547
37 | NCI-H1650 | 0.68 | 0.486 | 0.553 | 0.453 | 0.374
38 | LOU-NH91 | 0.912 | 0.841 | 0.908 | 0.771 | 0.558
39 | HOP-62 | 0.833 | 0.57 | 0.482 | 0.333 | 0.454
40 | NCI-H1915 | 0.772 | 0.763 | 0.606 | 0.494 | 0.42
41 | NCI-H3122 | 1.02 | 0.977 | 0.949 | 0.704 | 0.44
42 | NCI-H1651 | 1.02 | 0.992 | 1.05 | 0.992 | 0.877
43 | EBC-1 | 0.837 | 0.383 | 0.353 | 0.257 | 0.259
44 | NCI-H838 | 0.9 | 0.892 | 0.741 | 0.722 | 0.621
45 | NCI-H596 | 0.982 | 0.964 | 0.918 | 0.724 | 0.587
46 | SK-LU-1 | 1.03 | 0.778 | 0.711 | 0.536 | 0.634
47 | NCI-H441 | 1.33 | 0.751 | 0.718 | 0.568 | 0.393
48 | NCI-H650 | 0.855 | 0.922 | 0.733 | 0.695 | 0.368
49 | SK-MES-1 | 1.07 | 0.933 | 0.909 | 0.727 | 0.704
50 | NCI-H1792 | 0.952 | 0.715 | 0.706 | 0.25 | 0.238
51 | NCI-H1355 | 1.04 | 0.852 | 0.68 | 0.675 | 0.607
52 | SW 1573 | 0.965 | 0.603 | 0.477 | 0.42 | 0.357

Row | Cell Line | relative viability (0.01 µM) | relative viability (0.03162 µM) | relative viability (0.1 µM) | relative viability (0.3162 µM) | relative viability (1 µM)
53 | A549 | 1.01 | 0.853 | 0.563 | 0.417 | 0.251
54 | NCI-H2347 | 0.831 | 0.89 | 0.735 | 0.676 | 0.691
55 | LCLC-97TM1 | 0.98 | 0.707 | 0.878 | 0.703 | 0.19
56 | EMC-BAC-2 | 0.997 | 0.936 | 0.82 | 0.809 | 0.529
57 | NCI-H1975 | 0.914 | 1.11 | 0.979 | 0.705 | 0.59
58 | BEN | 1.2 | 1.03 | 0.926 | 0.853 | 0.752
59 | NCI-H1703 | 0.853 | 0.75 | 0.287 | 0.33 | 0.344
60 | NCI-H23 | 1.09 | 0.767 | 0.765 | 0.539 | 0.337
61 | NCI-H520 | 1.02 | 0.9 | 0.947 | 0.658 | 0.504
62 | CAL-12T | 0.937 | 0.82 | 0.617 | 0.549 | 0.391
63 | EPLC-272H | 0.995 | 0.761 | 0.818 | 0.618 | 0.238
64 | LCLC-103H | 1.06 | 1.04 | 0.927 | 0.817 | 0.756
65 | NCI-H2405 | 1.03 | 0.984 | 0.928 | 0.954 | 0.735
66 | HCC-15 | 0.846 | 0.835 | 0.699 | 0.551 | 0.271
67 | PC-3 [JPC-3] | 0.981 | 0.977 | 0.979 | 0.754 | 0.576
68 | NCI-H1944 | 0.886 | 0.65 | 0.514 | 0.437 | 0.429
69 | HARA | 1.14 | 1.03 | 1.04 | 0.826 | 0.348
70 | NCI-H1563 | 0.992 | 1.02 | 0.876 | 0.935 | 0.794
71 | NCI-H2126 | 1.03 | 0.992 | 0.954 | 0.933 | 0.566
72 | LXF-289 | 0.985 | 0.943 | 1 | 0.894 | 0.771
73 | NCI-H460 | 0.989 | 0.963 | 0.727 | 0.538 | 0.149
74 | NCI-H1395 | 0.808 | 0.823 | 0.659 | 0.606 | 0.492
75 | NCI-H2170 | 1.04 | 1.03 | 0.992 | 0.789 | 0.8
76 | NCI-H2009 | 1.03 | 0.876 | 0.766 | 0.697 | 0.575
